Here are results for five compounds from the NIST ThermoML archive (doi:10.1016/j.jct.2008.02.004).

Numbers after ± are expanded uncertainties.

A short description of the data set: molar enthalpy of vaporization or sublimation. The settings on record: 298.15 K; Liquid; calvet microcalorimetry.
Turning to `O=Cc1cccs1` [2-thiophenealdehyde], the molar enthalpy was 13.1 ± 0.526 kcal/mol. To `CCc1ccc(C=O)s1` [2-thiophenecarboxaldehyde, 5-ethyl-] belongs 14.9 ± 0.621 kcal/mol; to `O=Cc1ccsc1` [3-formylthiophene], 12.6 ± 0.574 kcal/mol. `Cc1ccsc1C=O` [3-methyl-2-thiophenecarboxaldehyde]: the molar enthalpy is 13.8 ± 0.621 kcal/mol. `Cc1ccc(C=O)s1` [5-methyl-2-thiophenecarbaldehyde]: the molar enthalpy was 13.4 ± 0.574 kcal/mol.
